From patent US10159725B2, “Composition of tumor-associated peptides and related anti-cancer vaccine for the treatment of gastric cancer and other cancers” (priority 2010, dated 2018)

What was measured:
CD8+ T cells = assay: In vitro priming of CD8+ T cells with pMHC/anti-CD28 coated beads, multimer readout (in vitro immunogenicity); type: cell-based, human; settings: healthy HLA-A*24 donors, three stimulations; for Positive wells/wells tested [%]: at least 24 wells evaluable per peptide; for Positive donors/donors tested [%]: at least two donors evaluable per peptide
Protocol: In order to perform in vitro stimulations by artificial antigen presenting cells (aAPC) loaded with peptide-MHC complex (pMHC) and anti-CD28 antibody, we first isolated CD8 T cells from fresh HLA-A*24 leukapheresis products of healthy donors obtained from the Blood Bank Tuebingen.
Isolation of CD8+ lymphocytes was performed by positive selection using CD8 MicroBeads (Miltenyi Biotec, Bergisch-Gladbach, Germany).
Stimulations were initiated in 96-well plates by co-incubating 1×10^6 CD8+ T cells with 2×10^5 washed coated beads in 200 μl TCM supplemented with 5 ng/ml IL-12 (PromoCell) for 3-4 days at 37° C. Half of the medium was then exchanged by fresh TCM supplemented with 80 U/ml IL-2 and incubating was continued for 3-4 days at 37° C. This stimulation cycle was performed for a total of three times. […] For analysis, a BD LSRII SORP cytometer equipped with appropriate lasers and filters was used. Peptide specific cells were calculated as percentage of total CD8+ cells. Evaluation of multimeric analysis was done using the FLOWJO software (Tree Star, Oregon, USA). In vitro priming of specific multimer+ CD8+ lymphocytes was detected by appropriate gating and by comparing to negative control stimulations.

[1] = system: HLA-DR broad antigens (HLA-DR1 to DR7); assay: ProImmune REVEAL MHC:peptide in vitro binding assay; parameters: species or system human; settings: relative to pass/fail control
Protocol: The ProImmune REVEAL™ technology employs in vitro HLA-DR assembly assays to determine the on-rates for the MHC:peptide complex as one major determinant of the binding constant of individual peptides. The assay was performed by ProImmune (Oxford, UK). At a fixed time point, the amount of intact MHC:peptide complexes is measured and compared with the amount for a pass/fail control (relative weak binder). A strong, promiscuous HLA-DR binder is included as positive control. Values indicate amount of binding for the individual peptides and HLA-DR molecules relative to the pass/fail control.
In this assay, binding was compared to that of a pass/fail control binder, and to a positive control peptide for each HLA-DR antigen.

[2] = system: anti-survivin T-cell response; assay: T-cell response in vaccinated prostate carcinoma patients (IFN-g ELISPOT, +/-ICS); type: in vivo, human

Sequence	Positive wells/wells tested [%] (CD8+ T cells)	Positive donors/donors tested [%] (CD8+ T cells)	in vitro binding to HLA-DR (in words) [1]	patients with induction of an anti-survivin T-cell response upon vaccination ([2]; among the 16 reacting patients of 19) [patients]	patients who reacted to the peptide (IFN-g ELISPOT, +/-ICS) ([2]; of the 19 patients vaccinated) [patients]
AYLVYTDRL (listed as Homo sapiens) [PPAP2C-001]	54	100	–	–	–
FYISPVNKL (listed as Homo sapiens) [AVL9-001]	50	100	–	–	–
HYKPTPLYF (listed as Homo sapiens) [SMC4-001]	9	75	–	–	–
LYQILQGIVF (listed as Homo sapiens) [CDC2-001]	28	88	–	–	–
NYLLYVSNF (listed as Homo sapiens) [MST1R-001]	14	50	–	–	–
NYLPFIMEL (listed as Homo sapiens) [UCHL5-001]	14	75	–	–	–
RFLSGIINF (listed as Homo sapiens) [NUF2-002]	4	50	–	–	–
SYIDVLPEF (listed as Homo sapiens) [MET-006]	22	63	–	–	–
SYIIDPLNL (listed as Homo sapiens) [PROM1-001]	26	83	–	–	–
SYNPLWLRI (listed as Homo sapiens) [ASPM-002]	31	63	–	–	–
TLGEFLKLDRERAKN (listed as Homo sapiens) [IMA-BIR-002]	–	–	promiscuous binding of IMA-BIR-002 to HLA-DR1, 3, 4 and 11	12	16
TYGNLLDYL (listed as Homo sapiens) [ABL1-001]	13	50	–	–	–
VWSDVTPLIF (VWSDVTPLTF; listed as Homo sapiens) [MMP11-001]	11	33	–	–	–
VYGIRLEHF (listed as Homo sapiens) [NUF2-001]	25	100	–	–	–
VYIEKNDKL (listed as Homo sapiens) [ERBB3-001]	15	83	–	–	–
YYNAAGFNKL (listed as Homo sapiens) [UQCRB-001]	38	100	–	–	–
